Results on two molecules are retold here after patent US12083105B2, “Compositions and methods for treating adult-onset neuronal ceroid lipofuscinosis (Kufs disease)” (CORNELL UNIVERSITY, priority 2020, dated 2024).

In one assay the test system is ATP5G. As to the kind of experiment: ATP5G accumulation in ANCL iNs (quantitative immunoblotting). It is filed as cell-based, human. As to conditions: for accumulation of ATP5G: ANCL iNs treated for 56 d (prevention), FIG. 7F; for ATP5G levels: added to ANCL iNs after 56 days of lipofuscin accumulation, followed 3 weeks (treatment), compared to control, FIG. 7H. The protocol:
ANCL patient-derived fibroblasts were treated with 200 μM of L1 or Dfx, or vehicle (0.1% DMSO=Control) for 72 h, before measuring the UV-Vis absorbance spectra of immunoprecipitated CSPα eluted by trypsinization (solid lines). Spectra were re-read after 10 min of 0.1 N HCl treatment (dashed lines). The experiments shown in FIGS. 7B-7I, were conducted using ANCL fibroblasts converted to iNs using BAM+ND1 technique. […] Quantitative immunoblotting was used to measure levels of oligomerized and fully palmitoylated CSPα as well as total SNAP-25. Oligo=oligomers; Palm=palmitoylated. […] The interaction of CSPα with SNAP-25 in ANCL iNs was measured by immunoprecipitating SNAP-25 followed by quantitative immunoblotting of co-immunoprecipitated CSPα (normalized to SNAP-25 IP). Note that mainly CSPα monomers and not oligomers were detected bound to SNAP-25. Control=control sham IP without IgG. […] Turnover of SNAP-25 was determined by cycloheximide chase, while maintaining the iron-chelators or vehicle in the medium. […] In the experiments shown in FIGS. 7E-7G, ANCL iNs treated with L1, Dfx, or vehicle for 56 d and analyzed. […] The levels of lipofuscin were determined by ELISA. In the experiments shown in FIGS. 7H-7I 56 day old untreated ANCL iNs were treated with L1, Dfx, or vehicle, and analyzed. […] Data are from FIG. 7A representative of n=4, FIG. 7B n=4, FIG. 7C n=4, FIG. 7D n=7, FIG. 7F n=4, FIG. 7G n=4, FIG. 7H n=6, FIG. 7I n=3. In FIGS. 7B-7C and FIGS. 7F-7G *P<0.05; **P<0.01; ****P<0.0001 by two-tailed Student's t-test. #P<0.05 by Mann-Whitney-Wilcoxon U test. In FIG. 7D-7C and FIGS. 7H-7I **P<0.01; ***P<0.001; ****P<0.0001 by two-way ANOVA; ##P<0.01; ###P<0.001; ####P<0.0001 by Tukey's multiple comparisons test.
For SDS-PAGE, 10-15% Laemmli gels (10.3% T and 3.3% C) were used to separate proteins on Bio-Rad apparati. Proteins were transferred onto nitrocellulose (pore-size=[…]; GE Healthcare) and blocked with 5% w/v fat-free dry milk in tris buffered saline, pH 7.5 supplemented with 0.1% Tween 20 (TBS-T). Immunoblotting was performed by incubating the blocked membranes with primary antibodies in blocking buffer for 8-16 hours. Following 5 washes with TBS-Tween 20 (0.1%). Blots were incubated with secondary antibodies (goat anti-rabbit conjugated to IRDye […] or 800CW; LI-COR) at 1/5000 in blocking buffer for 1-3 hours. Immunoblots were washed 5× with TBS-T and dried, then scanned on Odyssey CLx (LI-COR) and quantified using Image-Studio software (LI-COR).
For ATPSG immunoblots, following the transfer, nitrocellulose membranes were dried and fixed for 15 min at room temperature in 0.2% glutaraldehyde in PBS. […]
Effect of iron chelators on the accumulation of lipofuscin was monitored by ELISA for lipofuscin or based on lipofuscin autofluorescence. […]
A general note: In western blotting, separated proteins are transferred to a membrane and probed.

For the next assay, the system named is SNAP-25. As to the kind of experiment: SNAP-25 turnover in ANCL iNs by cycloheximide chase. It is filed as cell-based, human. Conditions: 72 h pretreatment, cycloheximide chase in presence of chelator, FIG. 7D. The protocol: ANCL patient-derived fibroblasts were treated with 200 μM of L1 or Dfx, or vehicle (0.1% DMSO=Control) for 72 h, before measuring the UV-Vis absorbance spectra of immunoprecipitated CSPα eluted by trypsinization (solid lines). Spectra were re-read after 10 min of 0.1 N HCl treatment (dashed lines). The experiments shown in FIGS. 7B-7I, were conducted using ANCL fibroblasts converted to iNs using BAM+ND1 technique. […] Quantitative immunoblotting was used to measure levels of oligomerized and fully palmitoylated CSPα as well as total SNAP-25. Oligo=oligomers; Palm=palmitoylated. […] The interaction of CSPα with SNAP-25 in ANCL iNs was measured by immunoprecipitating SNAP-25 followed by quantitative immunoblotting of co-immunoprecipitated CSPα (normalized to SNAP-25 IP). Note that mainly CSPα monomers and not oligomers were detected bound to SNAP-25. Control=control sham IP without IgG. […] Turnover of SNAP-25 was determined by cycloheximide chase, while maintaining the iron-chelators or vehicle in the medium. […] In the experiments shown in FIGS. 7E-7G, ANCL iNs treated with L1, Dfx, or vehicle for 56 d and analyzed. […] The levels of lipofuscin were determined by ELISA. In the experiments shown in FIGS. 7H-7I 56 day old untreated ANCL iNs were treated with L1, Dfx, or vehicle, and analyzed. […]

On to `CC(=O)N(O)CCCCCNC(=O)CCC(=O)N(O)CCCCCNC(=O)CCC(=O)N(O)CCCCCN` [Dfx, N′-[5-(Acetyl-hydroxy-amino)pentyl]-N-[5-[3-(5-aminopentyl-hydroxy-carbamoyl)propanoylamino]pentyl]-N-hydroxy-butane diamide], for which, in the assay with ATP5G, the “accumulation of ATP5G” value is given as “trend toward reduced accumulation” and the ATP5G levels result is “diminished down to similar levels as observed in the prevention experiments”. The “turnover of SNAP-25” value in the assay on SNAP-25 was “decreased turnover”.

With `Cc1c(O)c(=O)ccn1C` [L1, 3-hydroxy-1,2-dimethyl-4(1H)-pyridone], in the assay on ATP5G, the “accumulation of ATP5G” value was “trend toward reduced accumulation” and the ATP5G levels result is given as “diminished down to similar levels as observed in the prevention experiments”. The “turnover of SNAP-25” value with SNAP-25 is “decreased turnover”.
